According to patent publication US12545653B2, “Compound as PPAR agonist and application thereof” (USA Elixiria Biotech Inc., priority 2019, dated 2026):

What was measured:
klotho gene = experiment: In vivo brain transcriptional activity of klotho gene (RT-PCR of brain mRNA); parameters: species or system mouse; details: 10 mg/kg body weight/day tail vein
Protocol: To verify this hypothesis, adult male Kunming mice were used in the experiments. […] The injection volume is 8 ml/kg body weight. Dimethyl sulfoxide (DMSO) was used as a vehicle control of the compounds. […] The RNA was then reverse-transcribed to the cDNA, and quantified by SYBR Green fluorescence quantitative PCR kit (HaiGene) and a quantitative PCR system (Bio-Rad Min-Opticon Type 2) were used for real-time fluorescent quantitative polymerase chain reaction (RT-PCR). The mouse gene primers were design as follows: • KLOTHO-forward 5′-[…]-3′; • LOTHO-reverse 5′-[…]-3′; • GAPDH-forward 5′-[…]-3′; • GAPDH-reverse 5′-[…]-3′.
Data analysis was performed using the 2^−ΔΔct method. Semi-quantitative values of gene expression were then normalized by the control mean.

APP/PS1 transgenic mice = experiment: Alzheimer's disease model, eight-arm radial water maze and brain gene expression; assay type: in vivo, mouse; details: 30 days in food, 10 mg/kg body weight/day (donepezil 3 mg/kg body weight/day)
Text: A common indicator used in academia in memory and dementia experiments is the number of errors in the water maze (reference memory). More errors mean poorer memory. On the last 3 days of dosing, eight-arm radial water maze was used by experimenters who were blind to drug treatment. As a classic experimental instrument, to detect slight deficits in learning and memory, the eight-arm water maze is more sensitive than not only Morris maze, but also Six-arm radial water maze. For details, see reference 8: Alamed J et al. Two-day radial-arm water maze learning and memory task; robust resolution of amyloid-related memory deficits in transgenic mice [J]. […] This experiment uses an eight-arm water maze built in accordance with the above literature. The eight-arm water maze is placed in a basin with an interior diameter of 102 cm. Each arm measures 30 cm long, 14.5 cm wide, and 40 cm high. Escape platform is located at the end of one of the arms. In the reference memory version of the task described here, the goal arm is held constant for all trials, with a different start arm on successive trials. On day one, mice received 12 trials, with trials alternating between visible and hidden platform. On day 2 and 3, mice received 12 additional trials but the platform was kept hidden throughout the trials. Entry into an incorrect arm was scored as a spatial reference error. Errors were averaged into three trial blocks, with four blocks per day, e.g., the first block (the 1st to 3rd trial), the second block (the 4th to 6th trial), and so on. […]. The line charts were made with the number of blocks as the abscissa and the average of the number of errors as the ordinate. At the end of the experiments, the cerebral cortex and hippocampus of the mice were removed, RNA was extracted, and the expression of many genes was analyzed by semi-quantitative RT-PCR. […] The difference is significant with P<0.05.

PPARγ = biological target: T1, PPARγ (Homo sapiens, UniProt P37231); experiment: In vitro transcriptional activity of PPARγ gene (PPRE-luciferase reporter, HEK 293 T cells); assay type: cell-based; details: HEK 293 T cells transfected with PPARγ expression and PPRE-luc plasmids, 21 hours; read-out: EC50 of PPARγ gene activation
T1 construct: expressed in transfected cells; host or cells: HEK 293 T cells
T1 sequence (P37231 1-505): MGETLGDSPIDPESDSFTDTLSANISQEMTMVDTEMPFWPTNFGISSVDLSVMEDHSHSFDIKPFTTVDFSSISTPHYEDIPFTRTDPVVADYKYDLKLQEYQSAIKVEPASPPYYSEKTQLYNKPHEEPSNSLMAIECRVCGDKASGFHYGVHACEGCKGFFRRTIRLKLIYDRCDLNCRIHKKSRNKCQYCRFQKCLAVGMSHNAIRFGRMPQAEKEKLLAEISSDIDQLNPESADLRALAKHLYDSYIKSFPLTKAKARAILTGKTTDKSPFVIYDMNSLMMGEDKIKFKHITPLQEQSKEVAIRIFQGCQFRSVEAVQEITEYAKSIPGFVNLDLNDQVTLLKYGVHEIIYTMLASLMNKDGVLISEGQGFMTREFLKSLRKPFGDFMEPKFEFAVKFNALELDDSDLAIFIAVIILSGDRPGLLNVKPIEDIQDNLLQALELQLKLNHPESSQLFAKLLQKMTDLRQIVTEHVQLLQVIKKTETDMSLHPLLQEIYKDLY
Text: In this experiment, the PPARγ gene was used as target gene to detect the in vitro transcription activity of the compounds. The compounds of interest were detected was first dissolved with dimethyl sulfoxide (DMSO). […] First two plasmids were constructed: PPARγ protein expression plasmid and luciferase reporter plasmid. They are both from the lentiviral plasmid pLV-CMVIE-ZsGreen-Puro, whose DNA sequence contains the cytomegalovirus immediate early (CMVie) promoter, ZsGreen and Puro dual reporter. The PPARγ expression plasmid pLV-CMVIE-PPAR[…]-ZsGreen-Puro was constructed by cloning full-length coding sequences of the pertinent receptors into pHBLV-CMVIE-ZsGreen-Puro vector. To construct the luciferase (luc) reporter plasmid pLV-PPRE-luc-ZsGreen-Puro, the CMVie promoter in plasmid pHBLV-CMVIE-ZsGreenPuro was first replaced by a peroxisome proliferator responsive element (PPRE) containing fragments comprised the nucleotide sequence 50-[…], repeated four times in tandem, to generate a new plasmid, at a multiple cloning site of which the luc gene was then inserted. […] The compounds used for screening are representatives for compounds listed in Table 2, and Tables 3 of the present invention. […] Cells were distributed in 10-cm tissue culture plates at a density of 5.5 million cells per plate, and then transfected with the luciferase reporter plasmid (6 nanogram/plate) and the PPARγ expression plasmid (18 nanogram/plate). Cells were cultured for 6 hours. […] Then the cells were distributed in 96-well plates at a density of 20,000 cells per well. After incubation for 6 h, compounds or control with different concentration were placed into each well, resulting in the finical concentration of […] with each concentration in triplicate. Twenty-one hours later, promoter activation was detected by the addition of SteadyLite (PerkinElmer, Waltham, MA) and GloMax 96 Microplate Luminometer (Promega, Madison, WI). The amount of Luminometer emitted from each well is positively correlated with the expression of PPARγ gene. A three-parameter Sigmoid function curve was used to fit the obtained data. The abscissa represents the logarithmic value of the concentration, and the ordinate represents the percentage of PPARγ gene activation relative to those of the control. […] In Statistical analysis, the coefficient of variation is used to measure the robustness and repeatability of the experiment. […] The difference is significant with P<0.05. EC50 is a parameter of its activity.

LN-229 cells = experiment: Brain cancer model, LN-229 cells injected into the striatum, tumor volume; assay type: in vivo, mouse; details: mice with LN-229 cells in striatum, 5 mg/kg body weight/day
Protocol: The treatment lasted for a total of 30 days. The compounds was dissolved in DMSO and mixed into food pellets. The animals were given ad libitum access to the pellets. […] The difference is significant with P<0.05.

[1] = tested on: rat model of hyperglycemia-induced nephropathy; experiment: Hyperglycemia-induced nephropathy model (streptozotocin); assay type: in vivo; details: streptozotocin rats, 5 mg/kg body weight/day in food, 90 days
Protocol: The method was as follows:
Wild type Sprague-Dawley rats were used. The compounds was dissolved in DMSO and mixed into food pellets. The animals were given ad libitum access to the pellets. […] In addition, 3 days before compound treatment, the animal of group 2 to 4 were given a single intraperitoneal injection of streptozotocin, and 3 days later, blood glucose levels were measured from tail veins using a glucose meter. Animals with blood glucose levels above 500˜650 milligrams per deciliter were considered as hyperglycemia and were used for further study. No any side effect, or significant body weight changes, or significant dietary changes were found during the administration. After 90 days after initiation of treatment, blood pressure values were measured with the tail cuff system. The day before the kidneys were harvested, animals were placed in metabolic cages for 24 h for urine collection, and albumin to creatinine ratio (ACR) was measured. Animals were then fasted for 12 hours and sacrificed under anesthesia with a 10% chloral hydrate solution (0.3 g/kg). Serum samples were isolated and biochemical parameters were analyzed with by enzyme colorimetry in an automatic analyzer (Roche) to determine the FBG (fasting blood glucose) level (unit millimole/L). In addition, fasting insulin (FINS) levels, where the units are milliIU/L, were determined by enzyme-linked immunosorbent assay (ELISA) method with anti-rat insulin antibodies, and TNF-α was detected by rat tumor necrosis factor-α (TNF-α) ELISA kit (BD). […] The difference is significant with P<0.05.

In the case of CCc1ccc(CC/C=C/c2ccc3c(c2)NC(=O)CC3)cc1 [ELB00727, (E)-7-(4-(4-ethylphenyl)but-1-en-1-yl)-3,4-dihydroquinolin-2(1H)-one], the “mRNA level of klotho gene in the brain of the mouse relative to vehicle control group” value (klotho gene; after 10 days of continuous injection) is reported as “more than twice”, the fold induction at 10 mg/kg (klotho gene; Mus musculus, iv, 720 h, after 30 days of continuous injection, read-out: mRNA level of klotho gene in the brain of the mouse relative to vehicle control group) is reported as > 5 and the “number of errors in water maze on the third day” value (APP/PS1 transgenic mice; 5 on the first day) is reported as ~1. For the same molecule, the “reduction in the number of errors (reference memory), third day compared with first day” value (APP/PS1 transgenic mice; eight-arm water maze) was “significant”, the EC50 (PPARγ) was < 6.4 µM and the “tumor volume at 30 days compared with disease control group” value (LN-229 cells) was “significant tumor volume reduction”. The “blood TNF-α level compared with disease control group” value [1] was “significant TNF-α level reduction”, the “insulin resistance index ISI=ln (FBG*FINS) compared with disease control group” value [1] was “significant ISI increase” and the “urine albumin to creatinine ratio (ACR) compared with disease control group” value [1] was “significant ACR reduction”.
